Experimental findings from US12473305B2, “Pyrazole boronic acid compound, pharmaceutical composition containing same, and uses thereof” (BEIJING SONGRUN PHARMACEUTICAL TECHNOLOGY CO., LTD., priority 2020, dated 2025) are described below.

Structures can show the parent of a compound that is named as a salt.

Series [1] has as its system liver cancer cell line HepG2. The experiment in a line: CellTiter-Glo tumor cell proliferation, HepG2. The format is cell-based, human. As to the method: (§1) The effect of compounds on tumor cell proliferation was detected by CellTiter-Glo method. Human melanoma cell line A375, non-small cell lung cancer cell line A549, human lung adenocarcinoma cell line H1299, colorectal cancer cell line HCT116, liver cancer cell line HepG2 and gastric cancer cell line MGC80-3 were cultured in vitro. The cells were collected after growing to the logarithmic growth phase, centrifuged at 1000 rpm for 5 min, and suspended in an appropriate amount of medium after discarding the supernatant, and the cell concentration was adjusted to 2×10^4/mL. The cell suspension was inoculated onto the 384-well cell culture plate, with 50 μL per well. After being cultured in a cell incubator (37° C., 5% CO2) for 24 h, 5 μL of drug diluted by the cell culture medium was added into each well for the treatment group. Each drug was provided in triplicate. After 72 h incubation in the incubator, 20 μL of CellTiter-Glo was added into each well, and the relative luminescence unit (RLU) was measured with Multimode Microplate Reader Varioskan Flash (Thermo Scientific, USA) after placed at 37° C. for 20 min, and compared with the RLU of the control group. SigmaPlot 10.0 software was used to calculate the inhibition rate and IC50 value.

In series [2] the test system is colorectal cancer cell line HCT116. Description: CellTiter-Glo tumor cell proliferation, HCT116. The series is classed as cell-based, human. The settings on record: Homo sapiens, HCT-116, 72 h; for IC50: CellTiter-Glo; for inhibition at 1 µM / inhibition at 10 µM: read-out: Inhibition rate HCT116 (%). How it is done:
as §1
(ATP-based viability assays read luminescence as a measure of living cells.)

Series [3] deals with Human melanoma cell line A375. Description: CellTiter-Glo tumor cell proliferation, A375. The format is cell-based. The conditions noted are these: Homo sapiens, A-375, 72 h; for IC50: CellTiter-Glo; for inhibition at 1 µM / inhibition at 10 µM: read-out: Inhibition rate A375 (%). As to the method:
as §1

The test system of series [4] is non-small cell lung cancer cell line A549. The experiment in a line: CellTiter-Glo tumor cell proliferation, A549. The settings on record: Homo sapiens, A549, 72 h; for IC50: CellTiter-Glo; for inhibition at 1 µM / inhibition at 10 µM: read-out: Inhibition rate A549 (%). The series is classed as cell-based, human. As to the method:
as §1

In series [5] the test system is human multiple myeloma RPMI 8226. The experiment in a line: Pharmacodynamic study, RPMI 8226 subcutaneous xenograft. The series is classed as in vivo, female NOD/SCID mice. The conditions noted are these: positive control 0.5 mg/kg, twice a week, tail vein, day of the last administration. How it is done: The anti-tumor effect in vivo was studied by using the tumor animal model obtained by subcutaneous xenotransplantation of cell lines into female NOD/SCID mice (purchased from Sipeifu Biotechnology Co., Ltd.).
RPMI 8226 cells were subcutaneously inoculated into NOD/SCID mice, and human multiple myeloma subcutaneously transplanted tumor model was successfully established 9 days after inoculating the cells. The test was divided into vehicle (0.3 mL DMSO, 0.27 mL Tween-80, 2.43 mL normal saline) control group, compound 30 low-dose group (20 mg/kg), compound 30 medium-dose group (30 mg/kg), compound 30 high-dose group (40 mg/kg), compound 39 low-dose group (5 mg/kg), compound 39 medium-dose group (10 mg/kg), and compound 39 high-dose group (15 mg/kg), and bortezomib (API purchased from Yangtze River Pharmaceutical) was used as the positive control group (0.5 mg/kg); 5 tumor-bearing mice established above in each group were administered by tail vein twice a week for nine times in total. The long diameter a (mm) of the tumor and the short diameter b (mm) of the tumor perpendicular to the long diameter were measured with digital electronic caliper twice a week. The calculation formula of tumor volume was: TV=ab^2/2; and the calculation formula of relative tumor volume was: RTV=Vt/Vo, Vo was the tumor volume measured when the mice in each group were divided into cages and administered for the first time (d1), and Vt was the tumor volume measured at the last administration. The animals were sacrificed 31 days (d22) after inoculation of RPMI 8226 cells, and weighed. The tumor mass was dissected and weighed, and the tumor inhibition rate was calculated according to the following formula: […]

Series [6] has as its system human lung adenocarcinoma cell line H1299. Description: CellTiter-Glo tumor cell proliferation, H1299. The format is cell-based. The conditions noted are these: NCI-H1299, 72 h. How it is done:
as §1

In series [7] the test system is human liver cancer Bel7404. The experiment in a line: Antitumor activity in vivo, Bel7404 transplanted in nude mice. The settings on record: 15 mg/kg. On the set-up: species or system male BALB/c athymic nude mice. How it is done:
In the test, the Bel7404 models of human liver cancer transplanted into 6-week-old male BALB/c athymic nude mice (purchased from Shanghai Slac Laboratory Animal Co., Ltd.) with body weight of 18-20 g were used to study the anti-tumor effect of compound 30. The dose of compound 30 was 50 mg/kg (30H group), 25 mg/kg (30 M group) and 12.5 mg/kg (30 L group), respectively, and was injected intravenously twice a week for 5 times in total; at the same time, 5-FU was used as the control drug, which was injected intraperitoneally twice a week for 7 times in total (5 mice/group for the compound 30 administration group, 5 mice in 5 FU administration group; 8 mice were used as the mock group). The long diameter a (mm) and the vertical short diameter b (mm) of the tumor were measured twice a week with a digital electronic caliper. The tumor volume calculation formula was TV=ab^2/2; and the relative tumor volume calculation formula was RTV=Vt/Vo, wherein Vo was the tumor volume measured on the first day of administration (d1), and Vt was the tumor volume at each measurement. On the 22nd day of administration (d22), the animals were sacrificed and weighed. The tumor mass was dissected and weighed. The tumor inhibition rate (tumor inhibitory rate, %) was calculated according to the following formula: […]

Usually IC50 stands for the concentration that gives 50% inhibition. Higher therefore signals lower potency. As for “((1R)-1-(2-(3-(3-(2-(S,R-2,6-dimethylmorpholino)ethoxy)phenyl)-5-phenyl-1H-pyrazol-1-yl)acetamido)-3-methylbutyl)boronic acid hydrochloride [Compound 38]”, the concentration for half-maximal inhibition (IC50) in series [1] (72 h) amounted to 126 nM.
“(R)-(3-methyl-1-(2-(5-phenyl-3-(3-((5-(4-phenylpiperazin-1-yl)pentyl)oxy)phenyl)-1H-pyrazol-1-acyl)acetamido)butyl)boronic acid dihydrochloride [Compound 42]” displayed a 50% inhibitory concentration (IC50) in series [1] (72 h) of 121 nM.
“((1R)-1-(2-(3-(3-(2-(S,S-2,6-dimethylmorpholino)ethoxy)phenyl)-5-phenyl-1H-pyrazol-1-yl)acetamido)-3-methylbutyl)boronic acid hydrochloride [Compound 37]” displayed a half-maximal inhibitory concentration (IC50) in series [1] (72 h) of 60 nM.
As to `CC(C)C[C@H](NC(=O)Cn1nc(-c2cccc(OCCCCN3CCN(c4ccccc4)CC3)c2)cc1-c1ccccc1)B(O)O` [Compound 41, (R)-(3-methyl-1-(2-(5-phenyl-3-(3-(4-(4-phenylpiperazin-1-yl)butoxy)phenyl)-1H-pyrazol-1-yl)acetamido)butyl)boronic acid dihydrochloride], half-maximal inhibition in series [1] (Homo sapiens, HepG2, 72 h) (IC50) required 123 nM.
Regarding `CC(C)C[C@H](NC(=O)Cn1nc(-c2cccc(O)c2)cc1-c1ccccc1)B(O)O` [Compound 27, (R)-(1-(2-(3-(3-hydroxyphenyl)-5-phenyl-1H-pyrazol-1-yl)acetamido)3-methylbutyl)boronic acid], the values for the IC50 in series [2], in series [3] and in series [4] were 300 nM, 910 nM and 680 nM, respectively.
With `CC(C)C[C@H](NC(=O)[C@H](Cc1ccccc1)NC(=O)c1cnccn1)B(O)O` [bortezomib, reference compound], in series [5], the “Relative tumor volume (x ± S)” value was 5.17 ± 0.98, the “T/C (%)” value is listed as 55.41% and the “TGI (%)” value stood at 44.59%. In series [5] (in mm³ (unit assumed)), the “Tumor volume (x ± S)” value was 359.97 ± 65.13.
For orientation: inhibition means how much of the control response was suppressed. Regarding `Cc1cccc(S(=O)(=O)Oc2ccccc2-c2cc(-c3ccccc3)n(CC(=O)N[C@@H](CC(C)C)B(O)O)n2)c1` [Compound 8, (R)-(3-methyl-1-(2-(5-phenyl-3-(2-((m-tolylsulfonyl)oxy)phenyl)-1H-pyrazol-1-yl)acetamido)butyl)boronic acid], the inhibition at 1 µM in series [2] was found to be 2.1%; in series [3], 1.8%; in series [4], 2.9%. Further, the inhibition at 10 µM in series [2] stood at 98.5%; in series [3], 98.9%; in series [4], 73.4%.
Turning to `CC(C)C[C@H](NC(=O)Cn1nc(-c2ccccc2OS(=O)(=O)c2cccc(C(F)(F)F)c2)cc1-c1ccccc1)B(O)O` [Compound 1, (R)-(3-methyl-1-(2-(5-phenyl-3-(2-(((3-(trifluoromethyl)phenyl)sulfonyl)oxy)phenyl)-1H-pyrazol-1-yl)acetamido)butyl)boronic acid], the inhibition at 1 µM in series [2] came out at 13.1%; in series [3], 5.8%; in series [4], 11.9%. Further, the inhibition at 10 µM in series [2] turned out to be 98%; in series [3] it was 98.4%; in series [4] it was 66.4%. Also, the IC50 was 6530 nM in series [2], 7190 nM in series [6] and 8910 nM in series [3].
Take `CC(C)C[C@H](NC(=O)Cn1nc(-c2cccc(OCCCN3CCN(c4ccccc4)CC3)c2)cc1-c1ccccc1)B(O)O` [Compound 40, (R)-(3-methyl-1-(2-(5-phenyl-3-(3-(3-(4-phenylpiperazin-1-yl)propoxy)phenyl)-1H-pyrazol-1-yl)acetamido)butyl)boronic acid dihydrochloride]: inhibition in series [1] (Homo sapiens, HepG2, 72 h) was half-maximal at 101 nM (IC50).
For `CC(C)C[C@H](NC(=O)Cn1nc(-c2cccc(OCCN(C)C)c2)cc1-c1ccccc1)B(O)O` [Compound 29, (R)-(1-(2-(3-(3-(2-(dimethylamino)ethoxy)phenyl)-5-phenyl-1H-pyrazol-1-yl)acetamido)-3-methylbutyl)boronic acid hydrochloride], the IC50 turned out to be 920 nM in series [2], 1430 nM in series [3] and 3640 nM in series [4].
Take `Cc1ccc(-c2cc(-c3ccccc3OS(=O)(=O)c3cccc(C(F)(F)F)c3)nn2CC(=O)N[C@H](B(O)O)C(C)C)cc1` [Compound 20, (R)-(1-(2-(5-(4-methyl-phenyl)-3-(2-(((3-trifluoromethylphenyl)sulfonyl)oxy)phenyl)-1H-pyrazol-1-yl)acetamido)isobutyl)boronic acid]: the inhibition at 1 µM in series [2] turned out to be 9.2%; in series [3], 11.5%; in series [4], 1.2%. In addition, the inhibition at 10 µM in series [2] was 85.1%; in series [3], 61.9%; in series [4], 4.2%.
`O=c1[nH]cc(F)c(=O)[nH]1` [Compound 5FU, 5-FU, reference compound]: in series [7] (ip × 7), the “RTV (d22)” value was determined as 2.78 ± 0.37. In series [7] (ip × 7, d22), the “Animal weight (g) (After tumor removal)” value is listed as 23.14 ± 0.58 g and the Inhibition rate % was determined as 53.77%.
